From US5076973A, “Synthesis of dolastatin 3” (Arizona Board of Regents, priority 1988, dated 1991) come the findings set out here.

The data set is described as follows: Stability in solution and in storage. It counts as physicochemical.

For `CC(C)C[C@@H]1NC(=O)[C@@H]2CCCN2C(=O)[C@H](C(C)C)NC(=O)c2csc(n2)CNC(=O)c2csc(n2)[C@H](CCC(N)=O)NC1=O` [dolastatin 3, Cyclo-[L-Val-L-Pro-L-Leu-L-(gln)Thz-(gly)Thz]], the “Stability / decomposition in solution” value (in solution, especially in chloroform) is “tendency to undergo decomposition in solution”. Moreover, where the note is “storage of isolated natural sample”, the Stability in storage entry was “decomposed in storage”.
